The record followed here is patent publication US8580769B2, “Treatment of obesity, metabolic syndrome, and diabetes with protein kinase C inhibitors” (The United States of America as represented by the …, priority 2011, dated 2013).

In assay [1] the test system is aPKC immunoprecipitated from tissues previously stimulated by insulin. Nature of the assay: fully-activated aPKC immunoprecipitated from insulin-stimulated tissues. Format: biochemical. The procedure:
aPKCι Assays: aPKC enzyme activity was measured as previously described (Standaert et al., J. Biol. Chem. 279:24929-24934, 2004; Sajan et al., J. Lipid Res. 50:1133-1145, 2009; Sajan et al., Diabetologia 52:1197-1207, 2009; Farese et al., J. Clin. Invest. 117:2289-2301, 2007). […] After incubation, ^32P-labeled substrate was trapped on P-81 filter paper and counted. […]

For another assay, the system named is Het-MλKO mice. Nature of the assay: clinical parameters in Het-MλKO mice (model of obesity/metabolic syndrome/T2DM). The format is in vivo, mouse. To be noted: ICAP-treated Mλ-Het KO mice (n = 12), 0.5 mg/kg body weight/day x 8 days s.c., mean ± SEM.
The test system of another assay is aPKC. Nature of the assay: insulin-stimulated tissue aPKC activity in wild type mice after a single ICAPP injection. The format is in vivo, mouse. To be noted: 1.5 mg/kg ICAPP s.c., 2-30 hours, insulin 1 U/kg. The procedure:
aPKCι Assays: aPKC enzyme activity was measured as previously described (Standaert et al., J. Biol. Chem. 279:24929-24934, 2004; Sajan et al., J. Lipid Res. 50:1133-1145, 2009; Sajan et al., Diabetologia 52:1197-1207, 2009; Farese et al., J. Clin. Invest. 117:2289-2301, 2007). In brief, aPKCs were immunoprecipitated from cell lysates with a rabbit polyclonal antiserum (Santa Cruz Biotechnologies) that recognizes the C-termini of both PKC-ζ and PKC-λ/ι (whereas mouse (Bandyopadhyay et al., Endocrinol. 141:4120-4127, 2000) and human (present findings) muscle contains mainly PKC-λ and PKC-ι, respectively, and little PKC-ζ, mouse and human liver contains substantial amounts of both PKC-ζ and PKC-λ (Sajan et al., J. Lipid Res. 50:1133-1145, 2009; Matsumoto et al., J. Clin. Invest. 112:935-944, 2003; and present results). Immunoprecipitates were collected on Sepharose-AG beads (Santa Cruz Biotechnologies), and beads were suspended and incubated for 8 minutes at 30° C. in 100 buffer containing 50 mM Tris/HCl (pH, 7.5), 100 μM Na3VO4, 100 μM Na4P2O7, 1 mM NaF, 100 μM PMSF, 4 μg phosphatidylserine (Sigma-Aldrich), 50 μM [γ-^32P]ATP (NEN Life Science Products/Perkin-Elmer, Waltham, Mass.), 5 mM MgCl2, and, as substrate, 40 μM serine analogue of the PKC-ε pseudosubstrate (BioSource/Invitrogen, Carlsbad, Calif.). After incubation, ^32P-labeled substrate was trapped on P-81 filter paper and counted. This assay reflects the specific activity of a constant amount of aPKC (even in Het-MλKO mice) that is immunoprecipitated by supplier-prescribed amounts of antiserum (Farese et al., J. Clin. Invest. 117:2289-2301, 2007; Beeson et al., Diabetes 52:1926-1934, 2003).
Wild type mice were treated with 1.5 mg/kg ICAPP subcutaneously and after 2-30 hours, the mice were treated with 1 U/kg insulin 15 minutes before euthanasia. aPKC activity was determined as described in Example 1.

For the compound `O=C([O-])CC([S][Au])C(=O)[O-]` (centres unmarked) [ATM, aurothiomalate, reference compound], the “inhibition of fully-activated aPKC immunoprecipitated from tissues previously stimulated by insulin” value in assay [1] is recorded as “did not inhibit”.
In turn, `NC(=O)c1ncn([C@@H]2C[C@H](CO)[C@@H](O)[C@H]2O)c1N` [ICAP, 1H-imidazole-4-carboxamide 5-amino-1-[2,3-dihydroxy-4-[hydroxymethyl]cyclopentyl]-[1R-(1α,2β,3β,4α)]] came in with a 10-min-post-insulin serum glucose with Het-MλKO mice of 91 ± 8 mg/dL.
Turning to `NC(=O)c1ncn([C@@H]2C[C@H](COP(=O)(O)O)[C@@H](O)[C@H]2O)c1N` [ICAPP, 1H-imidazole-4-carboxamide, 5-amino-1-[2,3-dihydroxy-4-[(phosphonooxy)methyl]cyclopentyl]-[1R-(1α,2β,3β,4α)]], in the assay on aPKC, the “insulin-stimulated aPKC activity in adipose tissue” value is listed as “not in either muscle or adipose tissues”, the “insulin-stimulated aPKC activity in liver” value is “diminished” and the “insulin-stimulated aPKC activity in muscle” value was “not in either muscle or adipose tissues”.
